Test results published in ChEMBL document CHEMBL1201862, “PubChem BioAssay data set” (2004).
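Method: 48-hour compound exposure of cells in 96-well plates, five concentrations, linear interpolation of endpoints. The concentration for 50% growth inhibition is given as GI50.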 Active and inactive are the calls of the source. Rule as the data show it: active = GI50 up to about 1.1 µM and inactive = higher.

Columns and labels:
Assay in all cases: NCI anticancer screen, dose series, 48 h
SK-MEL-2 = system: SK-MEL-2
SNB-75 = system: SNB-75
MDA-MB-435 = system: MDA-MB-435
HL-60 = system: HL-60
CCRF-CEM = system: CCRF-CEM
ACHN = system: ACHN
COLO 205 = system: COLO 205
DU-145 = system: DU-145
CAKI-1 = system: CAKI-1
OVCAR-3 = system: OVCAR-3
NCI-H23 = system: NCI-H23
A549 = system: A549
SF-268 = system: SF-268
SW-620 = system: SW-620
Hs-578T = system: Hs-578T
MCF7 = system: MCF7
OVCAR-4 = system: OVCAR-4
HOP-92 = system: HOP-92
M14 = system: M14
HCC 2998 = system: HCC 2998

Measured: GI50

c1ccc2cc(NCNc3ccc4ccccc4c3)ccc2c1
active: HL-60 0.893 µM
inactive: SK-MEL-2 8.17 µM | SNB-75 13.2 µM | MDA-MB-435 1.78 µM | CCRF-CEM 11.8 µM | ACHN 16.3 µM | COLO 205 18.8 µM | DU-145 14.4 µM | CAKI-1 17.9 µM | OVCAR-3 5.69 µM | NCI-H23 12.2 µM | A549 18.3 µM | SF-268 38.8 µM | SW-620 34.2 µM | Hs-578T 37.8 µM | MCF7 11.8 µM | OVCAR-4 12.5 µM | HOP-92 1.27 µM | M14 15.5 µM

O=c1[nH]cc(/N=C/c2cc(Cl)ccc2O)c(=O)[nH]1
inactive: HCC 2998 23.6 µM | SK-MEL-2 19.1 µM | MDA-MB-435 29.1 µM | HL-60 4.71 µM | CCRF-CEM 2.26 µM | ACHN 13.7 µM | COLO 205 25.3 µM | DU-145 21.6 µM | CAKI-1 30.3 µM | OVCAR-3 17.5 µM | NCI-H23 19 µM | A549 > 100 µM | SF-268 5.62 µM | Hs-578T 47.2 µM | MCF7 17.7 µM | OVCAR-4 2.18 µM | HOP-92 11.2 µM | M14 13.8 µM

CC(=O)OC1C2CCC1C1C2N=NN1c1ccc([N+](=O)[O-])cc1 (centres undefined)
inactive: HCC 2998 > 100 µM | SK-MEL-2 > 100 µM | SNB-75 > 100 µM | MDA-MB-435 > 100 µM | HL-60 > 100 µM | CCRF-CEM > 100 µM | ACHN > 100 µM | COLO 205 > 100 µM | DU-145 > 100 µM | OVCAR-3 > 100 µM | NCI-H23 > 100 µM | A549 > 100 µM | SF-268 > 100 µM | SW-620 > 100 µM | Hs-578T > 100 µM | MCF7 > 100 µM | OVCAR-4 > 100 µM | HOP-92 > 100 µM | M14 > 100 µM

COc1ccccc1/C=C1\Sc2scc(-c3ccc(O)c(O)c3)[n+]2C1=O
inactive: HCC 2998 16.6 µM | SK-MEL-2 17.2 µM | MDA-MB-435 27.2 µM | HL-60 2.28 µM | CCRF-CEM 2.57 µM | ACHN 16.7 µM | COLO 205 19.6 µM | DU-145 21.4 µM | CAKI-1 15.1 µM | OVCAR-3 16.6 µM | NCI-H23 26.6 µM | A549 45.8 µM | SF-268 58.9 µM | SW-620 15.9 µM | Hs-578T 88.3 µM | MCF7 25.5 µM | OVCAR-4 26.8 µM | HOP-92 19.7 µM | M14 15.1 µM

CCCCCCNC(=O)c1cnc(Cl)cn1
inactive: SK-MEL-2 14.7 µM | SNB-75 21 µM | MDA-MB-435 15.6 µM | HL-60 23.8 µM | CCRF-CEM 13.7 µM | ACHN 2.36 µM | COLO 205 18.4 µM | DU-145 16.1 µM | CAKI-1 1.17 µM | NCI-H23 11.1 µM | A549 13.8 µM | SF-268 14.3 µM | SW-620 15.1 µM | Hs-578T 14.2 µM | MCF7 5.15 µM | OVCAR-4 20.6 µM | HOP-92 3.15 µM | M14 13.2 µM

Cc1ccc(-c2n[nH]c(=O)n2NC(=O)c2ccccc2C(=O)O)cc1
inactive: HCC 2998 > 100 µM | SK-MEL-2 > 100 µM | SNB-75 > 100 µM | MDA-MB-435 > 100 µM | HL-60 > 100 µM | ACHN > 100 µM | DU-145 > 100 µM | CAKI-1 > 100 µM | OVCAR-3 > 100 µM | NCI-H23 > 100 µM | A549 > 100 µM | SF-268 > 100 µM | SW-620 > 100 µM | Hs-578T > 100 µM | MCF7 > 100 µM | HOP-92 > 100 µM | M14 > 100 µM

O=C1Nc2ccccc2S/C1=C\c1ccc(C(F)(F)F)cc1
inactive: SK-MEL-2 > 100 µM | SNB-75 37.1 µM | MDA-MB-435 > 100 µM | HL-60 > 100 µM | ACHN > 100 µM | COLO 205 > 100 µM | DU-145 > 100 µM | CAKI-1 4.59 µM | OVCAR-3 > 100 µM | A549 > 100 µM | SF-268 > 100 µM | SW-620 > 100 µM | Hs-578T > 100 µM | MCF7 > 100 µM | OVCAR-4 > 100 µM | HOP-92 > 100 µM | M14 > 100 µM

N#Cc1c(-c2ccc([N+](=O)[O-])cc2)c2c([nH]c1=O)-c1ccccc1CCC2
inactive: HCC 2998 22.6 µM | SK-MEL-2 97.9 µM | MDA-MB-435 67.1 µM | HL-60 43 µM | ACHN 37.5 µM | COLO 205 83.9 µM | DU-145 28.1 µM | CAKI-1 > 100 µM | OVCAR-3 31.8 µM | NCI-H23 > 100 µM | A549 42.8 µM | SF-268 68.7 µM | SW-620 63.5 µM | Hs-578T 75 µM | MCF7 33.4 µM | OVCAR-4 65.6 µM | HOP-92 1.48 µM | M14 > 100 µM

OC[C@H]1CC(c2nn[nH]n2)[C@H](O)[C@@H]1O (some centres undefined)
inactive: HCC 2998 > 100 µM | SNB-75 > 100 µM | MDA-MB-435 > 100 µM | HL-60 > 100 µM | CCRF-CEM > 100 µM | ACHN > 100 µM | COLO 205 > 100 µM | DU-145 > 100 µM | OVCAR-3 > 100 µM | NCI-H23 > 100 µM | A549 > 100 µM | SF-268 > 100 µM | SW-620 > 100 µM | Hs-578T > 100 µM | MCF7 > 100 µM | OVCAR-4 > 100 µM | HOP-92 > 100 µM | M14 > 100 µM

COc1cc(/C=C2\CC(C)C/C(=C\c3ccc(O)c(OC)c3)C2=O)ccc1O (centres undefined)
inactive: HCC 2998 3.21 µM | SK-MEL-2 4.53 µM | SNB-75 4.24 µM | MDA-MB-435 2.32 µM | HL-60 2.98 µM | CCRF-CEM 2.56 µM | ACHN 3.13 µM | COLO 205 10.9 µM | DU-145 3.72 µM | OVCAR-3 2.8 µM | NCI-H23 3.1 µM | A549 3.64 µM | SF-268 4.31 µM | SW-620 2.24 µM | Hs-578T 2.05 µM | MCF7 4.66 µM | OVCAR-4 2.52 µM | HOP-92 2.92 µM | M14 3.04 µM

Cc1ccc(S(=O)(=O)C2=C([Si](C)(C)C)C3CC2[C@@H]2C4C=CC(CC4)[C@H]32)cc1 (some centres undefined)
inactive: HCC 2998 > 100 µM | SK-MEL-2 23.3 µM | MDA-MB-435 > 100 µM | HL-60 > 100 µM | ACHN 99.5 µM | COLO 205 > 100 µM | DU-145 > 100 µM | CAKI-1 82.6 µM | OVCAR-3 93.8 µM | A549 > 100 µM | SF-268 38.1 µM | SW-620 > 100 µM | Hs-578T 39.1 µM | MCF7 > 100 µM | OVCAR-4 > 100 µM | HOP-92 60.7 µM | M14 > 100 µM

O=C(Nc1ccccc1)c1cc2c(cc1Cl)SC(NNCCO)=NS2(=O)=O
inactive: HCC 2998 > 100 µM | SK-MEL-2 > 100 µM | SNB-75 99.5 µM | MDA-MB-435 > 100 µM | HL-60 > 100 µM | CCRF-CEM > 100 µM | ACHN > 100 µM | COLO 205 > 100 µM | DU-145 > 100 µM | CAKI-1 > 100 µM | NCI-H23 > 100 µM | SF-268 > 100 µM | SW-620 > 100 µM | Hs-578T > 100 µM | MCF7 > 100 µM | OVCAR-4 > 100 µM | HOP-92 > 100 µM | M14 > 100 µM

CNC(=O)c1cc(NC(=O)N(CCC#N)CCN(C(=O)N[C@@H](Cc2ccccc2)C(=O)N[C@@H](CC(C)C)C(=O)NC)c2ccccc2)ccc1OC
inactive: SK-MEL-2 31.8 µM | SNB-75 49.3 µM | MDA-MB-435 > 100 µM | HL-60 23.2 µM | CCRF-CEM > 66.1 µM | ACHN > 74.8 µM | COLO 205 > 100 µM | DU-145 > 54.8 µM | CAKI-1 > 81.1 µM | OVCAR-3 > 65.8 µM | NCI-H23 > 100 µM | A549 > 100 µM | SF-268 34.2 µM | SW-620 > 100 µM | Hs-578T 58.7 µM | MCF7 > 76 µM | OVCAR-4 > 100 µM | HOP-92 20.9 µM | M14 > 93.3 µM

C=CCSC1=N/C(=C\c2ccc(OC)cc2)C(=O)N1CC=C
inactive: HCC 2998 23.9 µM | SK-MEL-2 29.6 µM | MDA-MB-435 26.4 µM | HL-60 16 µM | CCRF-CEM 16.6 µM | ACHN 33.3 µM | COLO 205 20.4 µM | DU-145 42.2 µM | CAKI-1 50.5 µM | OVCAR-3 45.9 µM | NCI-H23 28.4 µM | A549 30.9 µM | SF-268 60.4 µM | SW-620 35.2 µM | Hs-578T 64.7 µM | MCF7 28.4 µM | OVCAR-4 28.2 µM | HOP-92 28.8 µM | M14 36.7 µM

C[C@H]1O[C@@H](c2c(O)ccc3ccccc23)C[C@@H](N(C)C)C1O (some centres undefined)
inactive: HCC 2998 36.6 µM | SK-MEL-2 > 100 µM | SNB-75 43.8 µM | MDA-MB-435 > 100 µM | HL-60 85.1 µM | CCRF-CEM > 100 µM | ACHN > 100 µM | COLO 205 65.3 µM | DU-145 > 100 µM | OVCAR-3 > 100 µM | NCI-H23 > 100 µM | A549 > 100 µM | SF-268 > 100 µM | SW-620 > 100 µM | Hs-578T 80.4 µM | MCF7 > 100 µM | OVCAR-4 > 100 µM | HOP-92 24.2 µM | M14 78.5 µM
